Experimental data: PMC12175168, “Refining the Amino Reactivity-Based Identification of Respiratory Sensitizers” (Chemical Research in Toxicology, 2025)
Where two headings read alike, the source gives them in different places. Marks after values point to notes of the source that are not given here.

How the values were obtained:
DPRA lysine peptide = tested on: DPRA lysine peptide; design: method as in literature; settings: AAB pH 10.2, 24 h; ref literature; cited from earlier work
[1] = Kinetic Gly-pNA chemoassay (second-order rate constant k Gly); settings: reaction with Gly-pNA, nominal test compound concentration; for k Gly ± s(k Gly), second-order rate constant: phosphate buffer 80 mM, 25 °C, ≥ values are minimum reactivity; for log k Gly: phosphate buffer;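 for all read-outs here: Gly-pNA depletion followed over time by chromatographic peak area, with test compound in at least tenfold excess (pseudo-first-order), added from acetonitrile stock, at least three runs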
Description: The reactivity of the 27 test compounds toward Gly-pNA was quantified in terms of the second-order reaction rate constant k Gly using our Gly-pNA chemoassay. , In brief, stock solutions of the test compound were freshly obtained every day by gravimetrically adding the required amount into a 10 mL volumetric flask, which was subsequently filled to volume with acetonitrile (ACN). The required amounts of test compounds depended on their reactivity toward Gly-pNA. […] As usual for kinetic studies, fast reacting chemicals are applied at lower concentrations than little reactive candidates. All stock solutions were stored at 25 °C in a climate chamber before first use (ca. 30 min) and for repeating an experiment (max. 6 h). Gly-pNA stock solution (1.69 mM) was obtained by dissolving 3.3 mg Gly-pNA in 10 mL phosphate buffer solution (80 mM) and could be used for several weeks if stored at 4 °C. For all chemoassay experiments, 1.8 mL glass vials were used as reaction batches, which were initially filled with 1070 μL phosphate buffer (80 mM) and 30 μL Gly-pNA stock solution. To start the reaction, 400 μL of the test compound stock solutions was added. […] The time between the start of the reaction and the first analysis was measured with an electronic time clock. All reactions were performed under pseudo-1st order conditions with the electrophile being at least ten times in excess over Gly-pNA.
For these compounds, the minimum reactivity was estimated in terms of k Gly by plotting ln (A Gly ^ t /A Gly ^0) vs reaction time t (with A Gly ^ t and A Gly ^0 being the peak areas under the chromatographic signal for Gly-pNA at time t and at the beginning of the reaction (t = 0)). Linear regression through 0 (at t = 0) and the first measurement point yields slope s (see Figure S1) which is the pseudo-1st order rate constant k Gly ^pseudo that can be converted with the initial test compound concentration in the reactions mixture (c) into k Gly according to eq . 1 kGly=kGlypseudo/c
2 Ln(AGlyt/AGly0)≈−kGly·c·t+0.5·kGly·kloss·c·t^2 Here k loss is the first order rate constant covering all processes contributing to the loss of the test compounds, except the reaction with Gly-pNA. The regression parameter of the linear part of eq (= k Gly·c) is the pseudo-1st order rate constant k Gly ^pseudo and can be converted into k Gly according to eq (see above).
Linear regression of these plots provides slope s, which is again the pseudo-1st order rate constant, k Gly ^pseudo, and can be used to calculate k Gly according to eq . All experiments to determine k Gly have been conducted at least three times.

[2] = ref Krutz et al., Sadekar et al., Ponder et al., Karol et al., Hopkins et al.; cited from earlier work
[3] = DPRA-like chemoassay with Gly-pNA (24 h percent depletion); settings: PPB pH 7.4, 24 h, 25 °C, 50-fold excess of test compound
Description: (§1) In addition to the kinetic Gly-pNA chemoassay, the reactivity of the 27 compounds toward Gly-pNA and Lys-pNA was determined in terms of percentage depletions after reacting for 24 h at 25 °C employing the following DPRA-like setup: stock solutions for the test compounds were prepared by gravimetrically adding at least 3 mg of the respective compound into a glass vial (total volume 1.8 mL) and subsequent addition of 1 mL ACN. […] The stock solutions for Gly-pNA and Lys-pNA with a final concentration of 1.7 mM were prepared by dissolving the required amount in one of the three aqueous buffer solutions used for this DPRA-like chemoassay: phosphate buffer (80 mM, pH 7.4), phosphate buffer (80 mM, pH 10.2), and ammonium acetate buffer (100 mM, pH 10.2). Glass vials (1.8 mL) were used as reaction vessels.
(§2) In the final reaction mixtures, the concentration of Gly-pNA or Lys-pNA was 0.03 mM, and the test compound was 50 times in excess (1.5 mM). After incubation for 24 h at 25 °C, the free amount of either Gly-pNA or Lys-pNA was determined using the HPLC UV–vis method described for the kinetic Gly-pNA chemoassay. , The percentage depletion of Gly-pNA (D Gly) or Lys-pNA (D Lys) was determined directly from peak areas according to eq 3 Dx[%]=(Axcontrol−Ax/Axcontrol×100)withx=GlyorLys
(§3) In eq , A x and A x ^control are the peak areas of the chromatographic signal of either Gly-pNA (x = Gly) or Lys-pNA (x = Lys) at 315 nm after 24 h incubation with and without test compound, respectively.
(§4) Summary of experimental conditions of the DPRA-like setups used to determine
(§5) DGly, D Lys, and D DPRA data in Table 2 (main text).
(§6) Table S2. Overview of experimental conditions for the DPRA-like setups used to
(§7) determine 24 h percentage depletion rates for the reaction of the test compounds with
(§8) Gly-pNA, Lys-pNA, and the DPRA lysine peptide (literature data).

[4] = Stability assessment of test compounds in aqueous buffers (half-lives); settings: for half-lives t 1/2 ± s(t 1/2): PPB (phosphate buffer 80 mM) pH 7.4
Description: To this end, the test compound was dissolved in 1 mL ACN in a glass vial. […] As reaction batches, 1.8 mL glass vials equipped with 400 μL glass inserts were used and filled with 220 μL of the respective aqueous buffer and 80 μL of the test compound stock solution. The depletion of the test compounds was recorded with the HPLC UV–vis instrument used for the kinetic Gly-pNA chemoassay. , Chromatographic separation of the reaction mixture was achieved using the gradient described for the Gly-pNA chemoassay previously , and an isocratic HPLC method (water/ACN 70:30, both with 0.1 vol % formic acid). The wavelengths used for the detection of the compound and the information on the used chromatographic method are given in the Supporting Information in Table S3.

[5] = DPRA-like chemoassay with Lys-pNA (24 h percent depletion); settings: 25 °C, 50-fold excess of test compound
Description: as §1, §2, §3, §4, §5, §6, §7, §8

[6] = design: method as in our previous work; settings: PPB pH 7.4, 24 h; ref our previous work; cited from earlier work
[7] = design: method as in our previous work; settings: reaction with Gly-pNA; ref our previous work; cited from earlier work
[8] = buffer, pH 10.2, half-lives t 1/2 ± s(t 1/2), AAP (ammonium acetate buffer 100 mM) pH 10.2
[9] = buffer, pH 10.2, half-lives t 1/2 ± s(t 1/2), PPB (phosphate buffer 80 mM) pH 10.2
[10] = AAB (ammonium acetate buffer) pH 10.2, 24 h

| SMILES | D DPRA ± s(D DPRA), depletion of the DPRA lysine peptide (DPRA lysine peptide) [%] | k Gly ± s(k Gly), second-order rate constant [1] [L mol^–1 min^–1] | log k Gly [1] | Classification as potential respiratory sensitizer or non-sensitizer [2] | D Gly ± s(D Gly), 24 h percent depletion of Gly-pNA [3] [%] | half-lives t 1/2 ± s(t 1/2) [4] | half-life [4, 8] [h] | half-life [4, 9] [h] | D Lys ± s(D Lys), 24 h percent depletion of Lys-pNA [5, 10] [%] | D Lys ± s(D Lys), 24 h percent depletion of Lys-pNA ([5]; PPB pH 10.2, 24 h) [%] | half-life ([4]; aqueous ammonium acetate buffer with acetonitrile, pH 10.2) [h] | half-life ([4]; aqueous phosphate buffer with acetonitrile, pH 10.2) [h] | D Gly, 24 h percent depletion of Gly-pNA [6] | k Gly ± s(k Gly), second-order rate constant [7] [L mol^–1 min^–1] | log k Gly [7] |
| --- | --- | --- | --- | --- | --- | --- | --- | --- | --- | --- | --- | --- | --- | --- | --- |
| C=CC(=O)OC [F2, methyl acrylate] | 86.5 ± 5.2 | 0.108 ± 0.005 | –0.97 | non-sensitizer | 16.6 ± 0.4 | no depletion | 10.5 ± 0.8 | 15.7 ± 1.05 | 55.5 ± 0.7 | 67.9 ± 1.6 |  |  |  |  |  |
| C=CC(=O)OCCCC [F3, butyl acrylate] | 87.8 ± 3.8 | 0.0826 ± 0.0141 | –1.08 | non-sensitizer | 15.2 ± 0.2 | no depletion | 15.5 ± 0.983 | 70.8 ± 30 | 61.3 ± 0.4 | 74.4 ± 1.5 |  |  |  |  |  |
| C=CC(=O)OCC [F4, ethyl acrylate] | 90.3 ± 6.6 | 0.0795 ± 0.0001 |  | non-sensitizer | 14.4 ± 0.6 | no depletion |  |  | 55.8 ± 0.4 | 67.1 ± 1.4 | 14.7 ± 1.98 | 22.5 ± 2.87 |  |  |  |
| O=CCCCC=O [G1, glutaraldehyde] | 82.8 ± 7.6 |  |  |  |  |  |  |  | 7.2 ± 1.7 | 97.9 ± 0.6 |  |  | 100 ^c % | 17731 ± 2525 | 4.25 |
